In patent US20240116985A1, “STAPLED PEPTIDES AND METHODS THEREOF” (priority 2020, published 2024):
pIC50: −log10 of the molar value. Values after ≈ are worked out from the molar mass of the structure shown. Where two headings read alike, the source gives them in different places.

Assays:
CHI Log D procedure = type: physicochemical; conditions: for CHI Log D: pH 7.4; for chromatographic logD: pH 7.4, CHI Log D
[1] = target: T1, full-length beta-Catenin (Uniprot ID P35222) (Homo sapiens, UniProt P35222); assay: Fluorescence polarization IC50 (beta-catenin / 5FAM-TCF4 10-53 competition); type: binding
T1 construct: 10 nM full-length beta-Catenin (Uniprot ID P35222)
T1 sequence (P35222 1-781): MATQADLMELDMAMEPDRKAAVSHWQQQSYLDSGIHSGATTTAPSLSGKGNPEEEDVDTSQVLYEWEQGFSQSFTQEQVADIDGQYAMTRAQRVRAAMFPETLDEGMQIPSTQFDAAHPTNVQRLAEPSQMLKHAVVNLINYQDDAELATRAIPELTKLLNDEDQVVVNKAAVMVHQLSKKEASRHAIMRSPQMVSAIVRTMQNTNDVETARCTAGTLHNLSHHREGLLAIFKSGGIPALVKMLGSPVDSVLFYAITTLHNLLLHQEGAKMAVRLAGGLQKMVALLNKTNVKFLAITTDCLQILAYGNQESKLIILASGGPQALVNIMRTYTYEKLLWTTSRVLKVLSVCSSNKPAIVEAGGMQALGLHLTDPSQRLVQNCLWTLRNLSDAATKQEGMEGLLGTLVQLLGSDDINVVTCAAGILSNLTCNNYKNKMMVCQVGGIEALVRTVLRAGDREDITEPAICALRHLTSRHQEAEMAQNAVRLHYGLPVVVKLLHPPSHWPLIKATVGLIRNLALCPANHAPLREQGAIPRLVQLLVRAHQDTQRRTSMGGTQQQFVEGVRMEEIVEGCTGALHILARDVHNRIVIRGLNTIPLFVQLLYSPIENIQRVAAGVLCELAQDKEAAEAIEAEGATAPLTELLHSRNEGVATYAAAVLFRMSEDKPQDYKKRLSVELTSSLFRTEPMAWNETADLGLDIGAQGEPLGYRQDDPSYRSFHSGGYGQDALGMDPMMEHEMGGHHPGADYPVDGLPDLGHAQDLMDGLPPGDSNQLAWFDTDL

Solubility in PBS = type: physicochemical
In short: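 Solubility is derived from HPLC peak areas: the ratio of the PBS supernatant peak to a 50 μM DMSO peptide peak, times 50 uM.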

[2] = fluorescence polarization, read-out: beta-Catenin FP IC50
[3] = fluorescence polarization, beta-catenin, read-out: FP EC50

Row | SMILES | CHI Log D (CHI Log D procedure) | Solubility (Solubility in PBS) | pIC50 [1, 2] | chromatographic logD (CHI Log D procedure) | Solubility (Solubility in PBS; Solubility (uM)) | further results
1 | C[C@@H]1NC(=O)[C@H](C)NC(=O)[C@H](CC(=O)O)NC(=O)[C@H](CC(=O)O)NC(=O)C2(CCCC=CCCCCCC[C@@](C)(C(=O)N[C@@H](Cc3ccsc3)C(=O)N[C@@H](Cc3csc4ccccc34)C(=O)N[C@@H](CCC(N)=O)C(N)=O)NC(=O)[C@H](CC(N)=O)NC(=O)[C@H](Cc3ccccc3)NC1=O)CCCC=CC[C@]1(CCCN1C(=O)CN=[N+]=[N-])C(=O)N[C@@H](CC(=O)O)C(=O)N[C@@H](CC(C)(C)C)C(=O)N2 (stereo partly drawn) [I-1052, AzAc-PL3-Asp-Npg-B5-Asp-Asp-Ala-Ala-Phe-Asn-S8-3Thi-BztA-Gln-NH2] | 2.334 | 33 µM (≈ 63.2 µg/mL) |  |  |  | pIC50 ([1]; read-out: FP EC50, fluorescence polarization, beta-catenin): 8.05
2 | CCCC[C@@H]1NC(=O)[C@H](CCC(=O)O)NC(=O)[C@H](CC(=O)O)NC(=O)C2(CCCC=CCCCCCC[C@@](C)(C(=O)N[C@@H](Cc3ccccc3)C(=O)N[C@@H](Cc3csc4ccccc34)C(=O)N[C@@H](CCC(N)=O)C(N)=O)NC(=O)[C@H](CCC(N)=O)NC(=O)[C@H](Cc3ccccc3)NC(=O)[C@H](C)NC1=O)CCCC=CC[C@]1(CCCN1C(C)=O)C(=O)N[C@@H](CC(=O)O)C(=O)N[C@@H]([C@@H](C)CC)C(=O)N2 (stereo partly drawn) [I-657, Ac-PL3-Asp-Ile-B5-Asp-Glu-nLeu-Ala-Phe-Gln-S8-Phe-BztA-Gln-NH2] | 2.767 | 40 µM (≈ 77 µg/mL) | 7.34 |  |  | pIC50 ([1]; read-out: FP EC50): 7.34
3 | CC(=O)N1CCC[C@]12CC=CCCCC1(CCCC=CCCCOC(=O)N3CC[C@@](C(=O)N[C@@H](Cc4ccccc4Cl)C(=O)N[C@@H](Cc4csc5ccccc45)C(=O)N[C@@H](CCC(N)=O)C(N)=O)(C3)NC(=O)[C@H](CC(C)C)NC(=O)[C@H](Cc3ccccc3)NC(=O)[C@H](C)NC(=O)[C@H](C)NC(=O)[C@H](CCC(=O)O)NC(=O)[C@H](CC(=O)O)NC1=O)NC(=O)[C@H](CC1CCCCC1)NC(=O)[C@H](CC(=O)O)NC2=O (stereo partly drawn) [I-1078, Ac-PL3-Asp-Cha-B5-Asp-Glu-Ala-Ala-Phe-Leu-PyrS2-2C1F-BztA-Gln-NH2] | 2.162 | 27 µM (≈ 53.6 µg/mL) |  |  |  | pIC50 [1, 3]: 6.45; pIC50 ([1]; read-out: beta-Catenin FP IC50): 6.45
4 | CC(=O)N1CCC[C@]12CC=CCCCC1(CCCC=CCCCOC(=O)N3CC[C@@](C(=O)N[C@@H](Cc4ccccc4)C(=O)N[C@@H](Cc4csc5ccccc45)C(=O)N[C@@H](CCC(N)=O)C(N)=O)(C3)NC(=O)[C@H](CC(C)C)NC(=O)[C@H](Cc3ccc(C(F)(F)F)cc3)NC(=O)[C@H](C)NC(=O)[C@H](C)NC(=O)[C@H](CC(=O)O)NC(=O)[C@H](CC(=O)O)NC1=O)NC(=O)[C@H](CC(C)(C)C)NC(=O)[C@H](CC(=O)O)NC2=O (stereo partly drawn) [I-1129, Ac-PL3-Asp-Npg-B5-Asp-Asp-Ala-Ala-4F3MeF-Leu-PyrS2-Phe-BztA-Gln-NH2] |  |  |  | 2.33 | 29 µM (≈ 57.4 µg/mL) | pIC50 ([1]; read-out: beta-Catenin FP IC50): 7.41
5 | CC[C@@H](C)[C@@H](NC(=O)[C@H](Cc1c[nH]cn1)NC(=O)[C@H](Cc1csc2ccccc12)NC(=O)[C@H](Cc1ccccc1)NC(=O)[C@]1(C)CCCCCCC=CCCCC2(CCCC=CC[C@]3(CCCN3C(C)=O)C(=O)N[C@@H](CC(=O)O)C(=O)N[C@@H](CC(C)C)C(=O)N2)C(=O)N[C@@H](CC(=O)O)C(=O)N[C@@H](CCC(=O)O)C(=O)N[C@@H](C)C(=O)N[C@@H](C)C(=O)N[C@@H](Cc2ccccc2)C(=O)N[C@@H](CC(N)=O)C(=O)N1)C(N)=O (stereo partly drawn) [I-742, Ac-PL3-Asp-Leu-B5-Asp-Glu-Ala-Ala-Phe-Asn-S8-Phe-BztA-His-dIle-NH2] |  |  | 6.80 | 2.8 | 27 µM (≈ 53.8 µg/mL) | 
6 | COC[C@@H]1NC(=O)[C@H](Cc2ccccc2)NC(=O)[C@H](C)NC(=O)[C@H](C)NC(=O)[C@H](CCC(=O)O)NC(=O)[C@H](CC(=O)O)NC(=O)C2(CCCC=CCCCCCC[C@@](C)(C(=O)N[C@@H](Cc3ccccc3)C(=O)N[C@@H](Cc3csc4ccccc34)C(=O)N[C@@H](CCC(N)=O)C(N)=O)NC1=O)CCCC=CC[C@]1(CCCN1C(C)=O)C(=O)N[C@@H](CC(=O)O)C(=O)N[C@@H](C)C(=O)N2 (stereo partly drawn) [I-433, Ac-PL3-Asp-Ala-B5-Asp-Glu-Ala-Ala-Phe-S(OMe)-S8-Phe-BztA-Gln-NH2] |  |  | 6.87 | 2.08 | 39 µM (≈ 70.7 µg/mL) | 
7 | CC[C@H](C)[C@@H]1NC(=O)[C@H](CC(=O)O)NC(=O)[C@]2(CC=CCCCC3(CCCC=CCCCCCC[C@@](C)(C(=O)N[C@@H](Cc4ccccc4)C(=O)N[C@@H](Cc4csc5ccccc45)C(=O)N[C@@H](CC(C)C)C(N)=O)NC(=O)[C@H](CCC(N)=O)NC(=O)[C@H](Cc4ccccc4)NC(=O)[C@H](C)NC(=O)[C@H](C)NC(=O)[C@H](CCC(=O)O)NC(=O)[C@H](CC(=O)O)NC3=O)NC1=O)CCCN2C(C)=O (stereo partly drawn) [I-634, Ac-PL3-Asp-Ile-B5-Asp-Glu-Ala-Ala-Phe-Gln-S8-Phe-BztA-Leu-NH2] |  |  | 6.37 | 2.76 | 49 µM (≈ 91.5 µg/mL) | 
8 | COc1ccccc1C[C@H](NC(=O)[C@]1(C)CCCCCCC=CCCCC2(CCCC=CC[C@]3(CCCN3C(C)=O)C(=O)N[C@@H](CC(=O)O)C(=O)N[C@@H](C)C(=O)N2)C(=O)N[C@@H](CC(=O)O)C(=O)N[C@@H](CCC(=O)O)C(=O)N[C@@H](C)C(=O)N[C@@H](C)C(=O)N[C@@H](Cc2ccccc2)C(=O)N[C@@H](CC(N)=O)C(=O)N1)C(=O)N[C@@H](Cc1csc2ccccc12)C(=O)N[C@@H](Cc1c[nH]cn1)C(N)=O (stereo partly drawn) [I-511, Ac-PL3-Asp-Ala-B5-Asp-Glu-Ala-Ala-Phe-Asn-S8-2OMeF-BztA-His-NH2] | 2.099 | 29 µM (≈ 54.1 µg/mL) | 7.40 |  |  | pIC50 ([1]; read-out: FP EC50): 7.40
9 | CC[C@H](C)[C@@H]1NC(=O)[C@H](CC(=O)O)NC(=O)[C@]2(CC=CCCCC3(CCCC=CCCCCCC[C@@](C)(C(=O)N[C@@H](Cc4ccccc4)C(=O)N[C@@H](Cc4csc5ccccc45)C(=O)N[C@@H](Cc4c[nH]cn4)C(N)=O)NC(=O)[C@H](CCC(N)=O)NC(=O)[C@H](Cc4ccccc4)NC(=O)[C@H](C)NC(=O)[C@H](C)NC(=O)[C@H](CN(CC(=O)O)CC(F)(F)F)NC(=O)[C@H](CC(=O)O)NC3=O)NC1=O)CCCN2C(C)=O (stereo partly drawn) [I-500, Ac-PL3-Asp-Ile-B5-Asp-TfeGA-Ala-Ala-Phe-Gln-S8-Phe-BztA-His-NH2] |  |  | 6.75 | 2.63 | 28 µM (≈ 55.7 µg/mL) | 
10 | CC(=O)N1CCC[C@]12CC=CCCCC1(CCCC=CCCCCCC[C@@](C)(C(=O)N[C@@H](Cc3ccccc3)C(=O)N[C@@H](Cc3csc4ccccc34)C(N)=O)NC(=O)[C@H](CC(N)=O)NC(=O)[C@H](Cc3ccccc3)NC(=O)[C@H](C)NC(=O)[C@H](C)NC(=O)[C@H](CCC(=O)O)NC(=O)[C@H](CC(=O)O)NC1=O)NC(=O)[C@H](CC(C)(C)C)NC(=O)[C@H](CC(=O)O)NC2=O (stereo partly drawn) [I-712, Ac-PL3-Asp-Npg-B5-Asp-Glu-Ala-Ala-Phe-Asn-S8-Phe-BztA-NH2] | 2.778 | 42 µM (≈ 73.7 µg/mL) | 7.04 |  |  | pIC50 ([1]; read-out: FP EC50): 7.04
11 | CC(=O)N1CCC[C@]12CC=CCCCC1(CCCC=CCCCCCC[C@@](C)(C(=O)N[C@@H](Cc3ccccc3)C(=O)N[C@@H](Cc3csc4ccccc34)C(=O)N[C@@H](CCC(N)=O)C(N)=O)NC(=O)[C@H](C)NC(=O)[C@H](Cc3cccc(C(F)(F)F)c3)NC(=O)[C@H](C)NC(=O)[C@H](C)NC(=O)[C@H](CC(=O)O)NC(=O)[C@H](CC(=O)O)NC1=O)NC(=O)[C@H](C)NC(=O)[C@H](CC(=O)O)NC2=O (stereo partly drawn) [I-376, Ac-PL3-Asp-Ala-B5-Asp-Asp-Ala-Ala-3F3MeF-Ala-S8-Phe-BztA-Gln-NH2] | 2.296 | 48 µM (≈ 88.2 µg/mL) |  |  |  | pIC50 ([1]; Table E2-1, read-out: beta-Catenin FP IC50): 5.88; pIC50 [1, 3]: 5.88
12 | CC(=O)N1CCC[C@]12CC=CCCCC1(CCCC=CCCCCCC[C@@](C)(C(=O)N[C@@H](Cc3ccccc3)C(=O)N[C@@H](Cc3csc4ccccc34)C(=O)NC(Cc3cncn3C)C(N)=O)NC(=O)[C@H](CC(N)=O)NC(=O)[C@H](Cc3ccccc3)NC(=O)[C@H](C)NC(=O)[C@H](C)NC(=O)[C@H](CCC(=O)O)NC(=O)[C@H](CC(=O)O)NC1=O)NC(=O)[C@H](C)NC(=O)[C@H](CC(=O)O)NC2=O (single isomer, unassigned) [I-480, Ac-PL3-Asp-Ala-B5-Asp-Glu-Ala-Ala-Phe-Asn-S8-Phe-BztA-3MeH-NH2] |  |  | 6.75 | 2.1 |  | solubility at 15 min (Solubility in PBS; Solubility (uM)): 36 µM (≈ 66.6 µg/mL)
13 | CC(=O)N1CCC[C@]12CC=CCCCC1(CCCC=CCCCCCC[C@@](C)(C(=O)N[C@@H](Cc3ccccc3)C(=O)N[C@@H](Cc3csc4ccccc34)C(=O)N[C@@H](CCC(N)=O)C(N)=O)NC(=O)[C@H](CC(N)=O)NC(=O)[C@H](Cc3ccccc3)NC(=O)[C@H](C)NC(=O)[C@H](C)NC(=O)[C@H](CC(=O)O)NC(=O)[C@H](Cc3nn[nH]n3)NC1=O)NC(=O)[C@H](C)NC(=O)[C@H](CC(=O)O)NC2=O (stereo partly drawn) [I-445, Ac-PL3-Asp-Ala-B5-Tetz-Asp-Ala-Ala-Phe-Asn-S8-Phe-BztA-Gln-NH2] |  |  | 5.30 | 2.05 | 43 µM (≈ 79 µg/mL) | 
